According to ChEMBL document CHEMBL1140180, “Antiproliferative triterpenes from Melaleuca ericifolia” (J Nat Prod, 2008):

Experiment: Antiproliferative activity against mouse +SA mammary epithelial cells after 4 days by MTT assay
Type: functional, cell-based
Settings: Epithelial cell, 96 h

| Structure (SMILES) | IC50 [µM] |
| --- | --- |
| C=C(C)[C@@H]1CC[C@]2(CO)CC[C@]3(C)[C@H](CC[C@@H]4[C@@]5(C)CC[C@H](O)C(C)(C)[C@@H]5CC[C@]43C)[C@@H]12 [BETULIN] | > 20 |
| C=C(C)[C@@H]1CC[C@]2(O)CC[C@]3(C)[C@H](CC[C@@H]4[C@@]5(C)CC[C@H](O)C(C)(C)[C@@H]5CC[C@]43C)[C@@H]12 | 18.7 |
| C=C(C)[C@@H]1CC[C@]2(C=O)CC[C@]3(C)[C@H](CC[C@@H]4[C@@]5(C)CC[C@H](O)C(C)(C)[C@@H]5CC[C@]43C)[C@@H]12 [BETULINALDEHYDE] | 19.4 |
| C[C@H]1[C@H](C)CC[C@]2(C(=O)O)CC[C@]3(C)C(=CC[C@@H]4[C@@]5(C)CC[C@H](O)C(C)(C)[C@@H]5CC[C@]43C)[C@H]12 [URSOLIC ACID] | > 20 |
| C[C@H]1CO[C@]23CC[C@@H]1[C@@H]2[C@H]1CC[C@@H]2[C@@]4(C)CC[C@H](O)C(C)(C)[C@@H]4CC[C@@]2(C)[C@]1(C)CC3 | 18.1 |
| C=C(C)[C@@H]1CC[C@@]2(OO)CC[C@]3(C)[C@H](CC[C@@H]4[C@@]5(C)CC[C@H](O)C(C)(C)[C@@H]5CC[C@]43C)[C@@H]12 | > 20 |
| C[C@H]1[C@H](C)CC[C@]2(C(=O)O)CC[C@]3(C)C(=CC[C@@H]4[C@@]5(C)C[C@@H](O)[C@H](O)[C@@](C)(CO)[C@@H]5CC[C@]43C)[C@H]12 [ASIATIC ACID] | > 20 |
| C=C(C)[C@@H]1CC[C@]2(OO)CC[C@]3(C)[C@H](CC[C@@H]4[C@@]5(C)CC[C@H](O)C(C)(C)[C@@H]5CC[C@]43C)[C@@H]12 | 15.5 |
| C=C(C)[C@@H]1CC[C@]2(C(=O)O)CC[C@]3(C)[C@H](CC[C@@H]4[C@@]5(C)CC[C@H](O)C(C)(C)[C@@H]5CC[C@]43C)[C@@H]12 [BETULINIC ACID] | > 20 |
| CC(=O)[C@@H]1CC[C@]2(C(=O)O)CC[C@]3(C)[C@H](CC[C@@H]4[C@@]5(C)CC[C@H](O)C(C)(C)[C@@H]5CC[C@]43C)[C@@H]12 [PLATANIC ACID] | > 20 |
